Patent US20250221988A1 (Cullgen (Shanghai), Inc., priority 2022, published 2025)
Where two headings read alike, the source gives them in different places.

How the values were obtained:
[1] = tested on: MV4;11 cells; assay: Cell viability assay (CellTiter-Glo) in MV4;11 cells; assay type: cell-based; conditions: MV4;11 cells, three days, read-out: MV4
Summary of the method: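 After three days' exposure to 3-fold serial compound dilutions (8 or 12 points), viability of cells seeded at 5000/well is read by CellTiter-Glo. Runs were done alone or combined with gilteritinib at 10 nM (MV4;11) or 20 nM (MOLM-13); IC50 from nonlinear regression.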

[2] = tested on: MOLM-13 cells; assay: Cell viability assay (CellTiter-Glo) in MOLM-13 cells; assay type: cell-based; conditions: MOLM-13 cells, three days
[3] = Homo sapiens, MV4-11, 72 h, compound alone, 11 IC50
[4] = Homo sapiens, 72 h, compound alone, read-out: MOLM-13 IC50
[5] = with 10 nM gilteritinib, 11 IC50 (nM) + 10 nM Gil
[6] = with gilteritinib, read-out: MOLM-13 IC50 (nM) + 10 nM Gil

| IC50 [1, 3] | IC50 [2, 4] | IC50 ([1]; compound alone, 11 IC50) | IC50 [1, 5] | IC50 [2, 6] | IC50 ([2]; compound alone, read-out: MOLM-13 IC50) | Compound |
| --- | --- | --- | --- | --- | --- | --- |
| > 1000 nM | > 1000 nM | – | – | – | – | O=C1CCC(N2C(=O)c3ccc(NC[C@H]4C[C@H](n5nc(C6CC6)c6c(N7CCNCC7)cccc65)C4)cc3C2=O)C(=O)N1 (stereo partly drawn) [GS-757, 5-(((Trans-3-(3-cyclopropyl-4-(piperazin-1-yl)-1H-indazol-1-yl)cyclobutyl)methyl)amino)-2-(2,6-dioxopiperidin-3-yl)isoindoline-1,3-dione] |
| – | > 1000 nM | 100 to 1000 nM | 10 to 100 nM | 10 to 100 nM | – | Cc1nc(-c2cn(C3CC(O)(CNc4ccc5c(c4)C(=O)N(C4CCC(=O)NC4=O)C5=O)C3)nc2C2CC2)ccc1F (stereo not drawn) [GS-759, 5-(((Cis-3-(3-cyclopropyl-4-(5-fluoro-6-methylpyridin-2-yl)-1H-pyrazol-1-yl)-1-hydroxycyclobutyl)methyl)amino)-2-(2,6-dioxopiperidin-3-yl)isoindoline-1,3-dione] |
| – | – | > 1000 nM | – | – | > 1000 nM | Cc1nc(-c2cn(C3CC(O)(CNc4ccc5c(c4)C(=O)N(C4CCC(=O)NC4=O)C5=O)C3)nc2C2CC2)ccc1F (stereo not drawn) [GS-760, 5-(((trans-3-(3-cyclopropyl-4-(5-fluoro-6-methylpyridin-2-yl)-1H-pyrazol-1-yl)-1-hydroxycyclobutyl)methyl)amino)-2-(2,6-dioxopiperidin-3-yl)isoindoline-1,3-dione] |
| > 1000 nM | > 1000 nM | – | 100 to 1000 nM | 100 to 1000 nM | – | Cn1ncc2cnc(-c3cn([C@H]4C[C@H](COc5ccc6c(c5)C(=O)N(C5CCC(=O)NC5=O)C6=O)C4)nc3C3CC3)cc21 (stereo partly drawn) [GS-761, 5-((Trans-3-(3-cyclopropyl-4-(1-methyl-1H-pyrazolo[4,3-c]pyridin-6-yl)-1H-pyrazol-1-yl)cyclobutyl)methoxy)-2-(2,6-dioxopiperidin-3-yl)isoindoline-1,3-dione] |
| > 1000 nM | > 1000 nM | – | – | – | – | Nc1ccnc2c1c(C1CC1)nn2[C@H]1C[C@H](CNc2ccc3c(c2)C(=O)N(C2CCC(=O)NC2=O)C3=O)C1 (stereo partly drawn) [GS-762, 5-(((Trans-3-(4-amino-3-cyclopropyl-1H-pyrazolo[3,4-b]pyridin-1-yl)cyclobutyl)methyl)amino)-2-(2,6-dioxopiperidin-3-yl)isoindoline-1,3-dione] |
| 10 to 100 nM | 10 to 100 nM | – | < 10 nM | < 10 nM | – | O=C1CCC(N2C(=O)c3ccc(NC[C@H]4C[C@H](n5cc(-c6cc7c(cn6)cnn7C6CC(O)C6)c(C6CC6)n5)C4)cc3C2=O)C(=O)N1 (stereo partly drawn) [GS-763, 5-(((Trans-3-(3-cyclopropyl-4-(1-(3-hydroxycyclobutyl)-1H-pyrazolo[4,3-c]pyridin-6-yl)-1H-pyrazol-1-yl)cyclobutyl)methyl)amino)-2-(2,6-dioxopiperidin-3-yl)isoindoline-1,3-dione] |
| < 10 nM | < 10 nM | – | < 10 nM | < 10 nM | – | O=C1CCC(N2C(=O)c3ccc(NC[C@H]4C[C@H](n5cc(-c6cnc7ccc(C8CC(O)C8)cc7n6)c(C6CC6)n5)C4)cc3C2=O)C(=O)N1 (stereo partly drawn) [GS-764, 5-(((Trans-3-(3-cyclopropyl-4-(7-(3-hydroxycyclobutyl)quinoxalin-2-yl)-1H-pyrazol-1-yl)cyclobutyl)methyl)amino)-2-(2,6-dioxopiperidin-3-yl)isoindoline-1,3-dione] |
| > 1000 nM | > 1000 nM | – | 100 to 1000 nM | 100 to 1000 nM | – | O=C1CCC(N2C(=O)c3ccc(NC[C@H]4C[C@H](n5nc(C6CC6)c6cccc(N7CCNCC7)c65)C4)cc3C2=O)C(=O)N1 (stereo partly drawn) [GS-765, 5-(((Trans-3-(3-cyclopropyl-7-(piperazin-1-yl)-1H-indazol-1-yl)cyclobutyl)methyl)amino)-2-(2,6-dioxopiperidin-3-yl)isoindoline-1,3-dione] |
| < 10 nM | < 10 nM | – | < 10 nM | < 10 nM | – | Cn1ncc2cnc(-c3cn([C@H]4C[C@H](CCc5ccc6c(c5)CN([C@@H]5CCC(=O)NC5=O)C6=O)C4)nc3C3CC3)cc21 [GS-766, 3-(5-(2-(Trans-3-(3-cyclopropyl-4-(1-methyl-1H-pyrazolo[4,3-c]pyridin-6-yl)-1H-pyrazol-1-yl)cyclobutyl)ethyl)-1-oxoisoindolin-2-yl)piperidine-2,6-dione] |
| 100 to 1000 nM | 100 to 1000 nM | – | 10 to 100 nM | 10 to 100 nM | – | Cn1ncc2cnc(-c3cn([C@H]4C[C@H](CCc5ccc6c(c5)C(=O)N(C5CCC(=O)NC5=O)C6=O)C4)nc3C3CC3)cc21 (stereo partly drawn) [GS-767, 5-(2-(Trans-3-(3-cyclopropyl-4-(1-methyl-1H-pyrazolo[4,3-c]pyridin-6-yl)-1H-pyrazol-1-yl)cyclobutyl)ethyl)-2-(2,6-dioxopiperidin-3-yl)isoindoline-1,3-dione] |
| < 10 nM | < 10 nM | – | < 10 nM | < 10 nM | – | Cn1ccc2c(-c3cn([C@H]4C[C@H](CNc5ccc6c(c5)C(=O)N(C5CCC(=O)NC5=O)C6=O)C4)nc3C3CC3)ncc(F)c21 (stereo partly drawn) [GS-768, 5-(((Trans-3-(3-cyclopropyl-4-(7-fluoro-1-methyl-1H-pyrrolo[3,2-c]pyridin-4-yl)-1H-pyrazol-1-yl)cyclobutyl)methyl)amino)-2-(2,6-dioxopiperidin-3-yl)isoindoline-1,3-dione] |
| < 10 nM | < 10 nM | – | < 10 nM | < 10 nM | – | CC(C)n1ccc2c(-c3cn([C@H]4C[C@H](CNc5ccc6c(c5)C(=O)N(C5CCC(=O)NC5=O)C6=O)C4)nc3C3CC3)ncc(F)c21 (stereo partly drawn) [GS-769, 5-(((Trans-3-(3-cyclopropyl-4-(7-fluoro-1-isopropyl-1H-pyrrolo[3,2-c]pyridin-4-yl)-1H-pyrazol-1-yl)cyclobutyl)methyl)amino)-2-(2,6-dioxopiperidin-3-yl)isoindoline-1,3-dione] |
| 10 to 100 nM | 10 to 100 nM | – | 10 to 100 nM | 10 to 100 nM | – | CN1CCC(n2ncc3cnc(-c4cn([C@H]5C[C@H](CNc6ccc7c(c6)C(=O)N(C6CCC(=O)NC6=O)C7=O)C5)nc4C4CC4)cc32)CC1 (stereo partly drawn) [GS-770, 5-(((Trans-3-(3-cyclopropyl-4-(1-(1-methylpiperidin-4-yl)-1H-pyrazolo[4,3-c]pyridin-6-yl)-1H-pyrazol-1-yl)cyclobutyl)methyl)amino)-2-(2,6-dioxopiperidin-3-yl)isoindoline-1,3-dione] |
| 10 to 100 nM | 10 to 100 nM | – | < 10 nM | 10 to 100 nM | – | O=C1CCC(N2C(=O)c3ccc(NC[C@H]4C[C@H](n5cc(-c6ncccc6[C@H]6C[C@@H](O)C6)c(C6CC6)n5)C4)cc3C2=O)C(=O)N1 (stereo partly drawn) [GS-771] |
| 10 to 100 nM | 10 to 100 nM | – | 10 to 100 nM | < 10 nM | – | O=C1CCC(N2C(=O)c3ccc(NC[C@H]4C[C@H](n5cc(-c6ncccc6[C@H]6C[C@H](O)C6)c(C6CC6)n5)C4)cc3C2=O)C(=O)N1 (stereo partly drawn) [GS-772] |
| < 10 nM | 10 to 100 nM | – | < 10 nM | < 10 nM | – | Cn1cc(Nc2cn([C@H]3C[C@H](CNc4ccc5c(c4)C(=O)N(C4CCC(=O)NC4=O)C5=O)C3)nc2C2CC2)cn1 (stereo partly drawn) [GS-773, 5-(((Trans-3-(3-cyclopropyl-4-((1-methyl-1H-pyrazol-4-yl)amino)-1H-pyrazol-1-yl)cyclobutyl)methyl)amino)-2-(2,6-dioxopiperidin-3-yl)isoindoline-1,3-dione] |
| 100 to 1000 nM | > 1000 nM | – | 10 to 100 nM | 100 to 1000 nM | – | Cc1cccc(-c2cn(C3CC4(CC(C(=O)NCc5ccc6c(c5)C(=O)N(C5CCC(=O)NC5=O)C6=O)C4)C3)nc2C2CC2)n1 (stereo not drawn) [GS-774, 6-(3-Cyclopropyl-4-(6-methylpyridin-2-yl)-1H-pyrazol-1-yl)-N-((2-(2,6-dioxopiperidin-3-yl)-1,3-dioxoisoindolin-5-yl)methyl)spiro[3.3]heptane-2-carboxamide] |
| 100 to 1000 nM | > 1000 nM | – | 100 to 1000 nM | 100 to 1000 nM | – | Cc1cccc(-c2cn(C3CC4(CC(CNc5ccc6c(c5)C(=O)N(C5CCC(=O)NC5=O)C6=O)C4)C3)nc2C2CC2)n1 (stereo not drawn) [GS-775] |
| 10 to 100 nM | 10 to 100 nM | – | < 10 nM | < 10 nM | – | N[C@H]1C[C@H](n2ncc3cnc(-c4cn([C@H]5C[C@H](CNc6ccc7c(c6)C(=O)N(C6CCC(=O)NC6=O)C7=O)C5)nc4C4CC4)cc32)C1 (stereo partly drawn) [GS-776, 5-(((Trans-3-(4-(1-(trans-3-aminocyclobutyl)-1H-pyrazolo[4,3-c]pyridin-6-yl)-3-cyclopropyl-1H-pyrazol-1-yl)cyclobutyl)methyl)amino)-2-(2,6-dioxopiperidin-3-yl)isoindoline-1,3-dione] |
| < 10 nM | 10 to 100 nM | – | < 10 nM | < 10 nM | – | O=C1CCC(N2C(=O)c3ccc(NC[C@H]4C[C@H](n5cc(-n6ncc7cccnc76)c(C6CC6)n5)C4)cc3C2=O)C(=O)N1 (stereo partly drawn) [GS-777, 5-(((Trans-3-(3-cyclopropyl-4-(1H-pyrazolo[3,4-b]pyridin-1-yl)-1H-pyrazol-1-yl)cyclobutyl)methyl)amino)-2-(2,6-dioxopiperidin-3-yl)isoindoline-1,3-dione] |
| 10 to 100 nM | 10 to 100 nM | – | < 10 nM | < 10 nM | – | N[C@H]1C[C@@H](n2ncc3cnc(-c4cn([C@H]5C[C@H](CNc6ccc7c(c6)C(=O)N(C6CCC(=O)NC6=O)C7=O)C5)nc4C4CC4)cc32)C1 (stereo partly drawn) [GS-778, 5-(((Trans-3-(4-(1-(cis-3-aminocyclobutyl)-1H-pyrazolo[4,3-c]pyridin-6-yl)-3-cyclopropyl-1H-pyrazol-1-yl)cyclobutyl)methyl)amino)-2-(2,6-dioxopiperidin-3-yl)isoindoline-1,3-dione] |
